From patent US20230091810A1, “FIRST-IN-CLASS OF SHMT2 AND MTHFD2 INHIBITORS AS ANTITUMOR AGENTS” (Duquesne University of the Holy Spirit, priority 2017, published 2023)
Read-outs that look alike come from different tables or passages of the source.

Columns and labels:
Assay type in all cases: cell-based, human
[1] = tested on: HCT116 cells; test: targeted metabolomics with [2,3,3-2H]serine tracer, HCT116 cells; conditions: 10 µM drug; for increase of total serine: HCT116 WT cells, relative to WT controls; for M+1 serine: WT HCT116 cells
Text: (§1) Identification of the mitochondrial enzyme target for AGF291, AGF320, and AGF347 by targeted metabolomics. […] The cells were processed for LC-MS analyses of total serine, and of M+3, M+2, M+1, and M+0 (unlabeled) serine (where M+n represents species with n deuterium atoms). The results with the drug-treated cells were compared to those for untreated cells. For WT HCT116 cells, the results were compared to those for SHMT2 KO, MTHFD2 KO, and SHMT1 KO cells (KO of SHMT2, MTHFD2, and SHMT1, respectively (20)). For H460 cells, controls included non-targeted control (NTC) and SHMT2 shRNA knockdown (KD) cells.
(§2) Targeted Metabolomics. Targeted metabolomics were performed essentially as previously described (47, 53). Briefly, cells (H460, HCT116, MIA PaCa-2) (1 million cells /dish for vehicle-treated samples, 1.5 million cells/dish for drug-treated samples) were seeded in triplicate 60 mm dishes in 5 ml of folate-free RPMI (contains glycine and unlabeled serine) supplemented with 10% dialyzed fetal bovine serum, 1% penicillin/streptomycin, 2 mM L-glutamine, and 25 nM leucovorin. Cells were allowed to adhere for 24 h. […] After 16 h, the cells were washed with PBS (3×), the media was replaced with folate- and serine-free culture media (containing glycine) supplemented with 10% dialyzed fetal bovine serine, 25 nM leucovorin, and [2,3,3-^2H]serine (250 µM), including 10 µM drug or DMSO vehicle. The cells were incubated for 24 h. All incubations were at 37° C. with 5% CO2. The media was aspirated, and cells were washed (3×) rapidly (< 30 s) with 5 mL ice-cold PBS; metabolism was quickly quenched with methanol:water (80:20) at -80° C. Cells were allowed to rock on dry ice for 10 min to cover the entire dish with 80:20 methanol:water (at -80° C.), then harvested by scraping and pipetting into 1.5 mL Eppendorf tubes. The tubes were centrifuged (4° C., 14000 RPM, 10 min) to fully extract metabolites into the methanol:water supernatant. The protein pellet was used for normalization. The supernatants were collected and analyzed by reversed-phase ion-pairing chromatography coupled with negative-mode electrospray-ionization high-resolution mass spectrometry on a stand-alone Orbitrap (ThermoFisher Exactive). Raw metabolite values were adjusted to correct for normal ion distributions and normalized to total proteins from the post-extraction pellet by solubilizing with 0.5 N NaOH and using the Folin-phenol protein method (13). Values below the limit of detection were assigned a value of 100 for normalization. Results for drug-treated and SHMT2 KD cells were normalized to vehicle-treated WT ± formate or NTC ± formate samples, as appropriate.

[2] = tested on: HPAC (PaC); test: proliferation assay, HPAC pancreatic cancer cells; conditions: folate-/glycine-free RPMI1640 with 25 nM leucovorin, read-out: IC50s (SE) HPAC (PaC)
Method: (§3) Proliferation assays were performed with engineered Chinese hamster ovary (CHO) cell lines R2 (transporter-null), PC43-10 (expresses RFC only), RT16 (FRα only), and R2/PCFT4 (PCFT only) cultured in folate-/glycine-free RPMI1640 supplemented with 25 nM leucovorin. Additional results are shown for HCT116 (colon tumor cells (CTC)), IGROV1 (epithelial ovarian cancer (EOC) cells), H460 (non-small cell lung cancer (NSCLC) cells), MIAPaCa-2 (pancreatic cancer (PaC) cells), and HPAC (PaC).
(§4) For proliferation assays of the HCT116, H460, and MIA PaCa2 tumor cell lines, the cells were plated in 96-well plates in an identical manner to the CHO experiments, except that the maximal drug concentration was increased to 10 µM. Glycine/nucleoside protection experiments in CHO and tumor cell lines were performed in folate- and glycine-free RPMI 1640/10% dialyzed fetal bovine serum supplemented with 25 nM leucovorin without additions, or in the presence of adenosine (60 µM), thymidine (10 µM), glycine (130 µM) and/or 5-aminoimidazole-4-carboxamide (AICA) (320 µM). Growth of metabolite-treated cells was normalized to controls treated with metabolites and vehicle (i.e., DMSO) both singly and in combination. Treatments with all metabolites were performed in parallel on the same plate for a given drug.

[3] = tested on: H460 cells; test: targeted metabolomics with [2,3,3-2H]serine tracer, H460 cells; conditions: 10 µM drug
Text: as §1
as §2, with “The tubes were centrifuged (4° C., 14000 RPM, 10 min) to fully extract metabolites into the methanol:water supernatant. The protein pellet was used for normalization.” left out, “Raw metabolite values were adjusted to correct for normal ion distributions and normalized to total proteins from the post-extraction pellet by solubilizing with 0.5 N NaOH and using the Folin-phenol protein method (13). Values below the limit of detection were assigned a value of 100 for normalization. Results for drug-treated and SHMT2 KD cells were normalized to vehicle-treated WT ± formate or NTC ± formate samples, as appropriate.” left out

[4] = tested on: H460 cells; test: glycine/nucleoside protection of growth inhibition in H460 cells; conditions: for protection from growth inhibition by combined adenosine and glycine: adenosine 60 µM plus glycine 130 µM; for protection from growth inhibition by glycine or adenosine alone: glycine 130 µM or adenosine 60 µM, singly
Method: We also tested the protective effects of AICA (320 µM) which is metabolized to AICAR (ZMP) (AICARFTase substrate), thus circumventing the GARFTase step in de novo purine biosynthesis (27) (see FIG. 1). […] Analogous results were obtained with HCT116 and MIA PaCa-2 tumor cells (see FIG. 14).
as §4

[5] = tested on: HCT116 (CTC); test: proliferation assay, HCT116 colon tumor cells; conditions: folate-/glycine-free RPMI1640 with 25 nM leucovorin, 96 h, read-out: IC50s (SE) HCT116 (CTC)
Method: as §3
(§5) Cell culture and proliferation/protection assays. The HCT116 cell lines including the serine hydroxymethyltransferase (SHMT) 1, SHMT2, and methylene THF dehydrogenase 2 (MTHFD2) knockout (KO) cells were previously described (47,53). The H460 cell line was obtained from the American Type Culture Collection (Manassas, VA), whereas the MIA PaCa-2 cells were provided by Dr. Yubin Ge (Karmanos Cancer Institute). Cell lines were verified by STR analysis by Genetica DNA Laboratories (Burlington, NC). MTXRIIOua^R2-4 (i.e. R2) Chinese hamster ovary (CHO) cells were generously provided by Dr. Wayne Flintoff (University of Western Ontario) (54). From this parental R2 cell line, human RFC and PCFT were individually transfected to generate the isogenic CHO cell lines designated PC43-10 (RFC) and R2/PCFT4 (PCFT) (55-57). Human tumor cell lines were cultured in folate-free RPMI supplemented with 10% dialyzed fetal bovine serum (Sigma-Aldrich), 1% penicillin/streptomycin solution, 2 mM L-glutamine, and 25 nM leucovorin in a humidified atmosphere at 37° C. in the presence of 5% CO2 and 95% air. The CHO cell lines were cultured in alpha-minimal essential medium (alpha-MEM) supplemented with 10% bovine calf serum, 1% penicillin/streptomycin solution, and 2 mM L-glutamine. Additionally, the transfected CHO cell lines (i.e. R2/PCFT4 and PC43-10) were maintained under continuous selection with 1 mg/ml of G418. […]

[6] = tested on: H460 (NSCLC); test: proliferation assay, H460 non-small cell lung cancer cells; conditions: folate-/glycine-free RPMI1640 with 25 nM leucovorin, 96 h, read-out: IC50s (SE) H460 (NSCLC)
Method: as §3, §5

Row | Compound | increase of total serine [1] | M+1 serine [1] | IC50 ([2]; Homo sapiens, HPAC) [nM] | dTTP isotope distribution from [2,3,3-2H]serine [3] | protection from growth inhibition by combined adenosine and glycine [4] | protection from growth inhibition by glycine or adenosine alone [4] | IC50 ([5]; Homo sapiens, HCT-116) [nM] | IC50 ([6]; Homo sapiens, NCI-H460) [nM] | IC50 [2] [nM] | reversal of growth inhibition by AICA (with glycine) ([4]; AICA 320 µM with glycine) | IC50 [5] [nM] | IC50 [6] [nM]
1 | Nc1nc2ccn(CCCc3ccc(C(=O)N[C@@H](CCC(=O)O)C(=O)O)cc3)c2c(=O)[nH]1 [AGF291] | ~ 10 fold | nearly complete loss | 301 | M+1 dTTP without M+2 dTTP | substantially protective | neither glycine nor adenosine alone was fully protective | 2270 | 461 |  |  |  | 
2 | Nc1nc2ccn(CCCCCc3ccc(C(=O)N[C@@H](CCC(=O)O)C(=O)O)s3)c2c(=O)[nH]1 [AGF320] | ~ 10 fold | nearly complete loss |  | M+1 dTTP without M+2 dTTP | substantially protective | neither glycine nor adenosine alone was fully protective |  |  | 190 | modestly (and incompletely) reversed | 737 | 573
3 | (2-amino-4-oxo-3,4-dihydro-5H-pyrrolo[3,2-d]pyrimidin-5-yl)butyl)-2-fluorobenzoyl)-L-glutamic acid [AGF347] | ~ 10 fold | nearly complete loss |  | M+1 dTTP without M+2 dTTP | substantially protective | neither glycine nor adenosine alone was fully protective |  |  | 764 |  | 437 | 214
